{
  "source": "patent US11116771B2",
  "about": "“G protein-coupled receptor (GPCR) modulation by imipridones” (Oncoceutics, Inc., priority 2016, dated 2021)",
  "key": {"[1]": {"test_system": "Staphylococcus aureus ATCC 33591", "experiment": "MIC by micro-broth dilution, S. aureus ATCC 33591", "format": "cell-based", "settings": "Staphylococcus aureus"}, "[2]": {"experiment": "Rat non-GLP oral single dose study", "format": "in vivo", "settings": "in vivo; rat non-GLP oral single dose study; read-out: NOAEL"}, "MV411 AML xenograft": {"test_system": "MV411 AML xenograft", "experiment": "MV411 AML xenograft model", "format": "in vivo, athymic nude mice", "settings": "oral weekly administration; ONC212 50 mg/kg, ONC201 at similar doses (FIG. 30A)"}, "[3]": {"test_system": "Staphylococcus aureus ATCC 29213", "experiment": "MIC by micro-broth dilution, S. aureus ATCC 29213", "format": "cell-based", "settings": "Staphylococcus aureus"}, "HCT116, MDA-MB-231, U87 [4]": {"test_system": "HCT116, MDA-MB-231, U87", "settings": "about 1-5 mg/mL of ONC201, 72 hours"}, "DRD4": {"target": "DRD4 (Homo sapiens, UniProt P21917)", "sequence (P21917 whole entry)": "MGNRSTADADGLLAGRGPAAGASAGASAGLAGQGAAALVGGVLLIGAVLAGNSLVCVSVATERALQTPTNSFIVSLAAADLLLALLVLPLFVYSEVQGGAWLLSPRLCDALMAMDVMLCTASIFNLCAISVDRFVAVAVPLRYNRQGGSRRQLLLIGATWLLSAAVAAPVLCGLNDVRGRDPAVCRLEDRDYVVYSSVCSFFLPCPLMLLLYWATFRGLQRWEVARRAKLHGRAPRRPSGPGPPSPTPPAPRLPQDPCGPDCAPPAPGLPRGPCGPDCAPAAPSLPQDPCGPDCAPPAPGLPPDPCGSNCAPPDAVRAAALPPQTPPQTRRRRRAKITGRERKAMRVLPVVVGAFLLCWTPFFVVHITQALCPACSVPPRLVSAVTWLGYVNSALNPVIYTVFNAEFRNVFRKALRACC", "settings": "arrestin recruitment reporter assay"}, "human DRD2 [5]": {"target": "T1, human DRD2 (Homo sapiens, UniProt P14416)", "T1 sequence (P14416 whole entry)": "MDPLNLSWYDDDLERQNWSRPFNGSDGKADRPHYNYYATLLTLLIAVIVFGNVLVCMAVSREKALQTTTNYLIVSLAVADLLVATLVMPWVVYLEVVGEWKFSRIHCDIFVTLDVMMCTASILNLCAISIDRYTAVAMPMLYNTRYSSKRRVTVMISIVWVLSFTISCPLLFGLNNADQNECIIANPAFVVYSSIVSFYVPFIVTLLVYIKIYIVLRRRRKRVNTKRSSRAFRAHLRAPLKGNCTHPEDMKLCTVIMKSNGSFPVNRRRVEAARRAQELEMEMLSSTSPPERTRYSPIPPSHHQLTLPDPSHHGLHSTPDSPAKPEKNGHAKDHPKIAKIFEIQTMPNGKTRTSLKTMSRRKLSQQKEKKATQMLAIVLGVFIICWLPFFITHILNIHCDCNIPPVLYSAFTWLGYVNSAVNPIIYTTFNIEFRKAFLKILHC"}, "human DRD2 [6]": {"target": "T1, human DRD2", "experiment": "cell-based", "settings": "HEK-293T, read-out: inhibition of the DRD2 dopamine response"}, "HCT116, MDA-MB-231, U87 [7]": {"test_system": "HCT116, MDA-MB-231, U87", "experiment": "cells", "settings": "Homo sapiens, 72 h, read-out: viability of tumor cells"}, "prolactin": {"test_system": "prolactin", "settings": "advanced solid tumors, ELISA in peripheral blood after ONC201"}, "[8]": {"test_system": "nuclear hormone receptors", "settings": "ONC201 2 or 20 μM (FIG. 5D)"}, "in vitro": {"experiment": "in vitro", "settings": "human, Cell viability of normal cells, about 1-5 mg/mL of ONC201, 72 hours"}, "[9]": {"test_system": "Staphylococcus aureus ATCC 700699", "experiment": "MIC by micro-broth dilution, S. aureus ATCC 700699", "format": "cell-based", "settings": "Staphylococcus aureus"}, "control GPCR": {"test_system": "control GPCR", "settings": "100 μM ONC201"}, "kinome": {"test_system": "kinome", "settings": "in vitro kinase enzymatic activity, ONC201 1 μM (FIG. 5E)"}, "DRD5": {"target": "DRD5 (Homo sapiens, UniProt P21918)", "sequence (P21918 whole entry)": "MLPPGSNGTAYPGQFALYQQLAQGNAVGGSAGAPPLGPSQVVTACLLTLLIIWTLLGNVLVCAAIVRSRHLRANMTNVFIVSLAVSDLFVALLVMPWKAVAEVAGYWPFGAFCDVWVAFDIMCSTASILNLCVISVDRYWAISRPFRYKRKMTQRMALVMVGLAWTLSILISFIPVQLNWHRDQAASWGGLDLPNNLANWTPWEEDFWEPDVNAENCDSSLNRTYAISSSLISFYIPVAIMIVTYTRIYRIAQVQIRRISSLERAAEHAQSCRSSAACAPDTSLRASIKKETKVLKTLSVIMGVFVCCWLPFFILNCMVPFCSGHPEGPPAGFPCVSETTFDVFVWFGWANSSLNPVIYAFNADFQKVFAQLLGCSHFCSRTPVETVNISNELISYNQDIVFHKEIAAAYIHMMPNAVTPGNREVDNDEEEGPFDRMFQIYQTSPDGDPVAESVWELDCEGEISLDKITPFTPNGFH", "experiment": "β-arrestin recruitment GPCR reporter assay, DRD5", "format": "cell-based"}, "[10]": {"test_system": "DRD2 (short and long isoforms)", "experiment": "β-arrestin recruitment GPCR reporter assay, DRD2", "format": "cell-based"}, "DRD2L": {"target": "DRD2L (Homo sapiens, UniProt P14416)", "sequence (P14416 whole entry)": "as the sequence (P14416 whole entry) above", "experiment": "Gaddum/Schild analysis of arrestin recruitment to DRD2L", "format": "cell-based", "settings": "arrestin recruitment / cAMP reporters (FIGS. 5B, 5C, 5F)"}, "MV411 AML cells": {"test_system": "MV411 AML cells", "experiment": "Cell viability, MV411 AML cells", "format": "cell-based"}, "[11]": {"target": "DRD2 alanine-scan mutation library (Homo sapiens, UniProt P14416, V196A)", "sequence (P14416 whole entry V196A)": "as the sequence (P14416 whole entry) above, with V196A counted along it"}, "[12]": {"target": "DRD2 alanine-scan mutation library (Homo sapiens, UniProt P14416, Y192A)", "sequence (P14416 whole entry Y192A)": "as the sequence (P14416 whole entry) above, with Y192A counted along it"}, "[13]": {"target": "DRD2 alanine-scan mutation library (Homo sapiens, UniProt P14416, E95A)", "sequence (P14416 whole entry E95A)": "as the sequence (P14416 whole entry) above, with E95A counted along it"}, "[14]": {"target": "DRD2 alanine-scan mutation library (Homo sapiens, UniProt P14416, T165A)", "sequence (P14416 whole entry T165A)": "as the sequence (P14416 whole entry) above, with T165A counted along it"}, "[15]": {"target": "DRD2 alanine-scan mutation library (Homo sapiens, UniProt P14416, I397A)", "sequence (P14416 whole entry I397A)": "as the sequence (P14416 whole entry) above, with I397A counted along it"}, "[16]": {"target": "DRD2 alanine-scan mutation library (Homo sapiens, UniProt P14416, A177S)", "sequence (P14416 whole entry A177S)": "as the sequence (P14416 whole entry) above, with A177S counted along it"}, "[17]": {"target": "DRD2 alanine-scan mutation library (Homo sapiens, UniProt P14416, V91A)", "sequence (P14416 whole entry V91A)": "as the sequence (P14416 whole entry) above, with V91A counted along it"}, "[18]": {"target": "DRD2 alanine-scan mutation library (Homo sapiens, UniProt P14416, L81A)", "sequence (P14416 whole entry L81A)": "as the sequence (P14416 whole entry) above, with L81A counted along it"}, "DRD1": {"target": "DRD1 (Homo sapiens, UniProt P21728)", "sequence (P21728 whole entry)": "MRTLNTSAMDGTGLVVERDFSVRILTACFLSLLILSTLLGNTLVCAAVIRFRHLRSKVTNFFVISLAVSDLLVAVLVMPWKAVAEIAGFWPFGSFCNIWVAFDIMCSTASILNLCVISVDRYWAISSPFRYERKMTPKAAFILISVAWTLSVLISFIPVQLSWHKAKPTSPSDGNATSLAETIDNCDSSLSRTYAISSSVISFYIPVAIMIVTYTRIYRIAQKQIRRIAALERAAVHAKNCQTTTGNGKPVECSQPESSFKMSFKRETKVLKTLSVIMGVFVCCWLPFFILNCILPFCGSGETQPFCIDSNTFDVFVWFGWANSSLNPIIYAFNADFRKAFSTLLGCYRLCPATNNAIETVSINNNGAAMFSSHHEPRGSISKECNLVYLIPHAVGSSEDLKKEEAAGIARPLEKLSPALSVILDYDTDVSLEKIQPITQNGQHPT", "settings": "arrestin recruitment reporter assay"}},
  "note": "“Also recorded” adds a separate entry of the source. Like-named read-outs stand apart in the source and are kept apart here.",
  "data": [
    {"smiles": "Cc1ccccc1CN1C(=O)C2=C(CCN(Cc3ccccc3)C2)N2CCN=C12", "note": "[ONC201, 7-benzyl-4-(2-methylbenzyl)-1,2,6,7,8,9-hexahydroimidazo [1,2-a]pyrido [3,4-e]pyrimidin-5(1H)-one]", "values": [
      {"measurement": "MIC", "setting": "[1]; ATCC33591", "value": "> 100", "unit": "µg/mL"},
      {"measurement": "MIC99", "setting": "[1]; ATCC33591, 24 h", "value": "> 100", "unit": "µg/mL"},
      {"measurement": "MIC", "setting": "[1]; ATCC33591, 24 h, read-out: MIC95", "value": "> 100", "unit": "µg/mL"},
      {"measurement": "MIC", "setting": "[1]; ATCC33591, 24 h, read-out: MIC, Visual", "value": "> 100", "unit": "µg/mL"},
      {"measurement": "NOAEL", "setting": "[2]", "value": 225, "unit": "mg/kg"},
      {"measurement": "leukemia xenograft tumor growth", "setting": "MV411 AML xenograft", "value": "not efficacious"},
      {"measurement": "MIC", "setting": "[3]; ATCC29213", "value": "> 100", "unit": "µg/mL"},
      {"measurement": "MIC99", "setting": "[3]; ATCC29213, 24 h", "value": "> 100", "unit": "µg/mL"},
      {"measurement": "MIC", "setting": "[3]; ATCC29213, 24 h, read-out: MIC95", "value": "> 100", "unit": "µg/mL"},
      {"measurement": "MIC", "setting": "[3]; ATCC29213, 24 h, read-out: MIC, Visual", "value": "> 100", "unit": "µg/mL"},
      {"measurement": "viability of tumor cells", "setting": "HCT116, MDA-MB-231, U87 [4]", "value": "≤ 50", "unit": "%"},
      {"measurement": "GPCR activity, DRD4", "setting": "DRD4", "value": "weaker potency"},
      {"measurement": "inhibition of DRD2 dopamine-induced calcium flux", "setting": "human DRD2 [5]", "value": "completely inhibited; also recorded: complete inhibition"},
      {"measurement": "inhibition at 100 µM", "setting": "human DRD2 [6]", "value": "> 95", "unit": "%"},
      {"measurement": "viability at 5000 µg/mL", "setting": "HCT116, MDA-MB-231, U87 [7]", "value": "< 25", "unit": "%"},
      {"measurement": "patients exhibiting induction of prolactin", "setting": "prolactin", "value": "10/11"},
      {"measurement": "interaction with nuclear hormone receptors", "setting": "[8]", "value": "no significant interactions"},
      {"measurement": "viability at 72 h", "setting": "in vitro", "value": "≥ 75", "unit": "%"},
      {"measurement": "MIC", "setting": "[9]; ATCC700699", "value": "> 100", "unit": "µg/mL"},
      {"measurement": "MIC99", "setting": "[9]; ATCC700699, 48 h", "value": "> 100", "unit": "µg/mL"},
      {"measurement": "MIC", "setting": "[9]; ATCC700699, 48 h, read-out: MIC95", "value": "> 100", "unit": "µg/mL"},
      {"measurement": "MIC", "setting": "[9]; ATCC700699, 48 h, read-out: MIC, Visual", "value": "> 100", "unit": "µg/mL"},
      {"measurement": "effect on calcium flux of control GPCR", "setting": "control GPCR", "value": "no effect"},
      {"measurement": "interaction with the kinome", "setting": "kinome", "value": "no significant interactions"},
      {"measurement": "GPCR activity, DRD5", "setting": "DRD5", "value": "no antagonism"},
      {"measurement": "GPCR activity, DRD2", "setting": "[10]", "value": "selectively antagonizes; also recorded: antagonized"},
      {"measurement": "antagonism of DRD2L", "setting": "DRD2L", "value": "direct, competitive antagonism"},
      {"measurement": "exposure required for efficacy", "setting": "MV411 AML cells", "value": "24 to 48", "unit": "h"},
      {"measurement": "Calcium Flux as a % of flux with WT DRD2 (100), ONC201 100 μM", "setting": "[11]", "value": 79, "unit": "%"},
      {"measurement": "Calcium Flux as a % of flux with WT DRD2 (100), ONC201 250 μM", "setting": "[11]", "value": 22, "unit": "%"},
      {"measurement": "Calcium Flux as a % of flux with WT DRD2 (100), ONC201 100 μM", "setting": "[12]", "value": 85, "unit": "%"},
      {"measurement": "Calcium Flux as a % of flux with WT DRD2 (100), ONC201 250 μM", "setting": "[12]", "value": 11, "unit": "%"},
      {"measurement": "Calcium Flux as a % of flux with WT DRD2 (100), ONC201 100 μM", "setting": "[13]", "value": 97, "unit": "%"},
      {"measurement": "Calcium Flux as a % of flux with WT DRD2 (100), ONC201 250 μM", "setting": "[13]", "value": 39, "unit": "%"},
      {"measurement": "Calcium Flux as a % of flux with WT DRD2 (100), ONC201 100 μM", "setting": "[14]", "value": 67, "unit": "%"},
      {"measurement": "Calcium Flux as a % of flux with WT DRD2 (100), ONC201 250 μM", "setting": "[14]", "value": 28, "unit": "%"},
      {"measurement": "Calcium Flux as a % of flux with WT DRD2 (100), ONC201 100 μM", "setting": "[15]", "value": 122, "unit": "%"},
      {"measurement": "Calcium Flux as a % of flux with WT DRD2 (100), ONC201 250 μM", "setting": "[15]", "value": 89, "unit": "%"},
      {"measurement": "Calcium Flux as a % of flux with WT DRD2 (100), ONC201 100 μM", "setting": "[16]", "value": 77, "unit": "%"},
      {"measurement": "Calcium Flux as a % of flux with WT DRD2 (100), ONC201 250 μM", "setting": "[16]", "value": 26, "unit": "%"},
      {"measurement": "Calcium Flux as a % of flux with WT DRD2 (100), ONC201 100 μM", "setting": "[17]", "value": 94, "unit": "%"},
      {"measurement": "Calcium Flux as a % of flux with WT DRD2 (100), ONC201 250 μM", "setting": "[17]", "value": 58, "unit": "%"},
      {"measurement": "Calcium Flux as a % of flux with WT DRD2 (100), ONC201 100 μM", "setting": "[18]", "value": 63, "unit": "%"},
      {"measurement": "Calcium Flux as a % of flux with WT DRD2 (100), ONC201 250 μM", "setting": "[18]", "value": 20, "unit": "%"},
      {"measurement": "GPCR activity, DRD1", "setting": "DRD1", "value": "no antagonism"}
    ]}
  ]
}
